The subject of one experiment is SiHa cell line. On the set-up: method as in PMID 32102414. As to conditions: cited from earlier work.
The test system of experiment [1] is 60 human tumor cell lines (NCI60). Description: NCI60 one-dose screen (10 μM), whole panel. Format: cell-based. As to conditions: 10 μM one-dose, NCI60.

Data on 2 compounds can be found in paper PMC11277489, “Novel Piperazine Derivatives of Vindoline as Anticancer Agents” (International Journal of Molecular Sciences, 2024).

As a reminder, the IC50 is the concentration at which inhibition is half-maximal. `CC[C@]12C=CCN3CC[C@@]4(c5ccc(OC)cc5N(C)[C@H]4[C@@](O)(C(=O)OC)[C@@H]1OC(=O)CCCN1CCN(CCCC(=O)O[C@@H]4[C@]5(CC)C=CCN6CC[C@@]7(c8ccc(OC)cc8N(C)[C@H]7[C@@]4(O)C(=O)OC)[C@@H]65)CC1)[C@@H]32` [Compound 4]: the IC50 in the experiment with SiHa cell line is 2850 nM. For the compound `CCC12C=CCN3CCC4(c5cc(N)c(OC)cc5N(C)C4C(O)(C(=O)OC)C1OC(C)=O)C32` (centres unmarked) [Compound 11, 10-aminovindoline], in experiment [1], the “antiproliferative effect (in words)” value is reported as “a notable antiproliferative effect was not shown”.
